This is an account of results in US6426087B1, “Orally administrable immediate-release and prolonged-release galenic form comprising an absorption-promoting agent and use of this absorption-promoting agent” (Merck Patent Gesellschaft mit, priority 1998, dated 2002).

One data set deals with Caco-2 line. Description: Permeability of carbon 14-labelled acamprosate with promoting agents in the Caco-2 cellular model (diffusion chamber). The format is in vitro ADME, human. As to conditions: Papp of acamprosate. The source says:
(§1) Actions of various promoting agents or mixtures of promoting agents on the permeability of calcium acetylhomotaurinate, in the Caco-2 cellular model.
(§2) A solution of carbon 14-labelled acamprosate, of known concentration, is placed in the apical compartment of a Grass Sweetana-type diffusion chamber which comprises a second so-called basolateral compartment separated from the first by an insert supporting a monocellular confluent culture of human colon adenocarcinoma […] epithelial cells, Caco-2 line.
(§3) Samples are collected at regular intervals from the second basolateral compartment. The acamprosate concentration is determined by […]. A simple calculation makes it possible to obtain the apparent permeability coefficient (Papp). The acamprosate solution is supplemented with various promoting agents or mixtures of promoting agents, under varying conditions. The influence of these agents on the apparent permeability coefficient (Papp) was measured. The experimental results are grouped together in the following table where the apparent permeability coefficient values (Papp) are expressed in cm/s.
Background: Caco-2 cells form a polarised layer with tight junctions and transporters.

Assay in data set [1]: as above
The format is in vitro ADME, human. The conditions noted are these: human, Caco-2; acamprosate solution, promoting agent: None; apical to basolateral; read-out: Papp, Mean (n = 6).
Text: as §1, §2, §3

Take `CCCCCCCCCC(=O)O` [Capric]: the “Papp, Mean (n = 6)” value in the data set with Caco-2 line (promoting agent Conc. 0.25 % m/v) is listed as 63.6 10^−7 cm/s.

As for `C[C@H](CCC(=O)NCC(=O)[O-])[C@H]1CC[C@H]2[C@@H]3[C@H](O)C[C@@H]4C[C@H](O)CC[C@]4(C)[C@H]3C[C@H](O)[C@]12C.[Na+]` [Na glycocholate, sodium glycocholate], in the data set on Caco-2 line (promoting agent Conc. 0.2 % m/v), the “Papp, Mean (n = 6)” value is 114 10^−7 cm/s.

Turning to `CC(=O)NCCCS(=O)(=O)O` [acamprosate, calcium 3-acetylamino-1-propanesulphonate, reference compound], in data set [1], the Papp A→B was 2.4 ×10⁻⁶ cm/s.
